From patent US8343759B2, “Mammalian cell line expressing inducible c-Src” (National University Corporation Chiba University, priority 2007, dated 2013)
Entries after “also recorded” stand apart in the source; their conditions may differ.

Columns and labels:
[1] = tested on: 10T½ cells; assay: PMA-stimulated macropinocytosis (RITC-dextran-labeled macropinosomes); type: cell-based, mouse; conditions: 10T½ cells pretreated with 5 μM SU6656 for 30 min, then 200 nM PMA plus 1 mg/ml RITC-dextran for 20 min
Method: Data represent means±SD from three independent experiments. […] For comparison, the open bar is a reproduction of the data of Src-CFP in FIG. 2D. B: COS-1 cells transfected with c-Src plus Src(SH4-Unique)-GFP were cultured for 24 h and visualized with anti-Src (red) immunofluorescence and GFP fluorescence (green). C: 10T½ cells transfected with Src(SH4-Unique)-GFP (control) were treated with 200 nM PMA plus 1 mg/ml RITC-dextran for 15 min (1 PMA). D: 10T½ cells expressing Src(SH4-Unique)-GFP were stimulated with 200 nM PMA and cells were monitored at 30-sec intervals. The time of PMA addition is indicated as 0 sec (00′00″). E: 10T½ cells expressing Lyn(SH4-Unique)-GFP were treated with 200 nM PMA for 30 min and imaged by GFP fluorescence and Nomarski optics. F: 10T½ cells were pretreated with 5 μM SU6656 or none for 30 min and then stimulated with 200 nM PMA plus 1 mg/ml RITC-dextran for 20 min. […] Data represent means±SD from three independent experiments. […] Arrows indicate macropinosomes. N, nucleus. Bars, 10 μm. Macropinosomes wider than 2 μm labeled by c-Src or mutants were counted. All values were expressed as means±D from three independent experiments. Rhodamine B-isothiocyanate (RITC)-dextran (Mr 70,000), PMA, and wortmannin were from Sigma-Aldrich. SU6656 (Blake et al., 2000) was from Calbiochem. EGF was a kind gift of M. N. Fukuda.

[2] = tested on: HeLa cells; assay: EGF-induced macropinosome formation marked with Src(SH4-Unique)-GFP; type: cell-based, human; conditions: serum-starved HeLa cells expressing Src(SH4-Unique)-GFP, pretreated 30 min with 5 μM SU6656 or 200 nM wortmannin, then 50 ng/ml EGF for 15 min
Method: During stimulation, cells were treated with 1 mg/ml RITC-dextran (B). White arrows indicate macropinosomes. […] The number of macropinosomes associated with Src(SH4-Unique)-GFP per 200 cells is shown. Data represent means±SD from three independent experiments. […] Equal amounts of lysates (input lysates) were analyzed by Western blotting with anti-pTyr and anti-actin antibodies. c-Src immunoprecipitates from lysates were analyzed by Western blotting with anti-Src[Y^418] and anti-Src antibodies. c-Src kinase activity was quantitated by measuring signal intensity using anti-Src[pY^418] antibody and normalized to the corresponding signal intensity detected by anti-Src. Results are expressed as mean values (fold) relative to the specific activity of c-Src in unstimulated control cells. […] The number of Src:(SH4-Unique)-GFP-labeled macropinosomes per 200 HeLa (left) or 100 A431 (right) cells was counted. Data represent means±SD from three independent experiments. […] F: Lysates were analyzed by Western blotting with anti-Src[Y^418], anti-Src, anti-pTyr, and anti-actin antibodies. […] White arrows indicate macropinosomes containing RITC-dextran. […] I: Co-localization of RITC-dextran with cathepsin D in macropinosomes was quantitated. […] Macropinosomes wider than 2 μm labeled by c-Src or mutants were counted. All values were expressed as means±D from three independent experiments. […]

[3] = biological target: T1, c-Src (Homo sapiens, UniProt P12931); assay: c-Src kinase activity in immunoprecipitates by Western blotting with anti-Src[pY418]; type: cell-based; conditions: serum-starved HeLa cells pretreated with 5 μM SU6656, EGF for 15 min
T1 construct: endogenous in cells; host or cells: HeLa (serum-starved, EGF-stimulated)
T1 sequence (P12931 whole entry): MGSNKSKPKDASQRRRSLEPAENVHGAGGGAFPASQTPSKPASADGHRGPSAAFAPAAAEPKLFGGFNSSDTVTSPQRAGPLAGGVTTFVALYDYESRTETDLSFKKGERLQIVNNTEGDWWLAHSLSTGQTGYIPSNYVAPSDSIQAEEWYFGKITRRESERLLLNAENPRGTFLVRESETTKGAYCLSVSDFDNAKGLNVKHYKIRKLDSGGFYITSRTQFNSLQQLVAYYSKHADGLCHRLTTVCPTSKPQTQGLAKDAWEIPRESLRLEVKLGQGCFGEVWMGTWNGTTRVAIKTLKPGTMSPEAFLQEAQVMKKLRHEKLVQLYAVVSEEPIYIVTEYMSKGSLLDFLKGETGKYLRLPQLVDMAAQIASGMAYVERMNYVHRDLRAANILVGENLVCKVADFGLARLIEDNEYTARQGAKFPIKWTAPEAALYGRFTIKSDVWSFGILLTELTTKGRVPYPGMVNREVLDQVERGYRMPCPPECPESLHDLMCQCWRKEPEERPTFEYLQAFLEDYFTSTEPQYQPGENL
Method: Results are expressed as mean values (fold) relative to the specific activity of c-Src in unstimulated control cells. […] F: Lysates were analyzed by Western blotting with anti-Src[Y^418], anti-Src, anti-pTyr, and anti-actin antibodies. […] Western blotting and immunoprecipitation were as described (Hirao et al., 1997; Mera et al., 1999; Yamaguchi et al., 2001; Kasahara et al., 2004). Cell lysates were prepared in Triton X-100 lysis buffer (50 mM HEPES, pH 7.4, 10% glycerol, 1% Triton X-100, 4 mM EDTA, 100 mM NaF, and 1 mM Na3VO4) containing protease inhibitors. For immunoprecipitation, lysates were incubated with protein G-Sepharose beads (Amersham) precoated with anti-Src (#327) overnight at 4° C.

[4] = biological target: EGFR (Homo sapiens, UniProt P00533); assay: EGFR activation by Western blotting of lysates with anti-pTyr; type: cell-based; conditions: serum-starved HeLa cells pretreated with 5 μM SU6656, EGF for 15 min
Chain of EGFR (P00533 25-1210): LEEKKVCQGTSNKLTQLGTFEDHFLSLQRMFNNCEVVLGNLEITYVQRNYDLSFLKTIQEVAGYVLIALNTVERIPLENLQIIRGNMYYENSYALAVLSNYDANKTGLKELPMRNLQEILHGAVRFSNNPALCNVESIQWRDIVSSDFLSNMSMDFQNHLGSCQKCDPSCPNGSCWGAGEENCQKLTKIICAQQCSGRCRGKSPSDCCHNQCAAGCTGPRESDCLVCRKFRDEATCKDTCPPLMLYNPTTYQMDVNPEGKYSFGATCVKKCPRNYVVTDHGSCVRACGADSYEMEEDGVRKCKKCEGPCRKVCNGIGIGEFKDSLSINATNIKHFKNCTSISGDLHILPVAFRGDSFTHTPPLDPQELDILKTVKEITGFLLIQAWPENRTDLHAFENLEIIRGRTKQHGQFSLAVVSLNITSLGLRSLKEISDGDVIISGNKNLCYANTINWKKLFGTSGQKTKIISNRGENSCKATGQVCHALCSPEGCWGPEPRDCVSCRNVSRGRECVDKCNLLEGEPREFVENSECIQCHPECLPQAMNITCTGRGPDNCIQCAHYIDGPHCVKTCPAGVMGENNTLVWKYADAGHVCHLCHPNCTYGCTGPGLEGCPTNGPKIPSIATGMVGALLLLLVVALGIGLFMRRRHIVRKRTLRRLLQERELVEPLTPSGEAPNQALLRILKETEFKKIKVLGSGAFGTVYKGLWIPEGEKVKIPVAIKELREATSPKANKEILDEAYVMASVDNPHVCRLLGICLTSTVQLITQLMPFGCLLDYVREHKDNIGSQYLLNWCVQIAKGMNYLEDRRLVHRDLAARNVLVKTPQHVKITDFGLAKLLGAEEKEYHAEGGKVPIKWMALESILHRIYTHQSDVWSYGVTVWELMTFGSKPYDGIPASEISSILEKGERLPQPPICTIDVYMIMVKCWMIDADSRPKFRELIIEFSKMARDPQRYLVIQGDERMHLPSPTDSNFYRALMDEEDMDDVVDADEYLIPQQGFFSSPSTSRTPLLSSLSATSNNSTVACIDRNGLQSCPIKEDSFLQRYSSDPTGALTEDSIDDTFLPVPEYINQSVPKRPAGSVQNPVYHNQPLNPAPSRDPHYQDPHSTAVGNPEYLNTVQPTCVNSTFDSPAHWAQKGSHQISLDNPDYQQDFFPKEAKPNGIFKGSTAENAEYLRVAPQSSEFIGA
Method: F: Lysates were analyzed by Western blotting with anti-Src[Y^418], anti-Src, anti-pTyr, and anti-actin antibodies. […] Cell lysates were prepared in Triton X-100 lysis buffer (50 mM HEPES, pH 7.4, 10% glycerol, 1% Triton X-100, 4 mM EDTA, 100 mM NaF, and 1 mM Na3VO4) containing protease inhibitors.

[5] = tested on: COS-I cells; assay: FRAP of Src-GFP on macropinosomes; type: cell-based; conditions: cycloheximide-treated COS-I cells, pretreated 10 min with 1 mM NEM or 0.5% tannic acid
Method: A-D: FRAP analysis of Src-GFP was performed in COS-I cells treated with cycloheximide. Cells expressing Src-GFP were pretreated with nothing (control) (A), I mM NEM (B), or 0.5% tannic acid (C) for 10 min. Enclosed areas (yellow circles) were photobleached and cells were monitored at 5-sec (A and C) or 60-sec intervals (B) for 10 min. Mean fluorescence intensities on macropinosomes were measured, and results are means±SD (control, n=4; NEM, n=3; Tannic acid, n=5). N, nucleus. Bars 5 μm. E: Equal amounts of lysates from S100 and P100 fractions of Src-GFP-expressing COS-I cells were analyzed by Western blotting with anti-Src, anti-cPLA2 (cytosol marker), and anti-desmoglein (plasma membrane marker) antibodies.
For live-cell imaging, cells cultured in 35-mm glass-based dishes were transiently transfected with plasmid DNA on the preceding day. Time-lapse monitoring was performed using a Fluoview FV5OO with a 40×1.00 oil objective. Images were obtained at low power laser (0.3-3.0% laser) using the 488 nm line of an argon laser. FRAP was performed as described (Kasahara et at., 2004). If necessary, COS-I cells were treated with 200 μg/ml cycloheximide (Sigma-Aldrich) for 2 h before images were obtained. […] Mean fluorescence intensities were quantitated using Fluoview Tiempo time course version 4.2 software. […]

effect on EGFR activation [4] | SMILES | inhibition of PMA-stimulated macropinocytosis [1] | inhibition of EGF-induced macropinosome formation [2] | effect on c-Src activity [3] | inhibition of fluorescence recovery of Src-GFP on macropinosomes [5]
without affecting | CN(C)S(=O)(=O)c1ccc2c(c1)/C(=C/c1cc3c([nH]1)CCCC3)C(=O)N2 [SU6656] | not significant; also recorded: not inhibited; also recorded: did not inhibit | partly inhibited | decreased c-Src activity below basal levels | 
 | CCN1C(=O)C=CC1=O [NEM, N-ethyl maleimide] |  |  |  | inhibited
 | O=C(OC[C@H]1O[C@@H](OC(=O)c2cc(O)c(O)c(OC(=O)c3cc(O)c(O)c(O)c3)c2)[C@H](OC(=O)c2cc(O)c(O)c(OC(=O)c3cc(O)c(O)c(O)c3)c2)[C@@H](OC(=O)c2cc(O)c(O)c(OC(=O)c3cc(O)c(O)c(O)c3)c2)[C@@H]1OC(=O)c1cc(O)c(O)c(OC(=O)c2cc(O)c(O)c(O)c2)c1)c1cc(O)c(O)c(OC(=O)c2cc(O)c(O)c(O)c2)c1 [tannic acid] |  |  |  | partly inhibited
